The nature of series [1]: Particle size and PDI of lipid nanoparticles by dynamic light scattering. In kind it is physicochemical. As to conditions: lipid nanoparticles with luciferase mRNA; ionizable lipid/cholesterol/DSPC/DMG-PEG2000 50/38.5/10/1.5 mol%. The protocol: (§1) Lipid nanoparticles were prepared by (1) dissolving and mixing ionizable lipid compounds, cholesterol, phospholipids and polyethylene glycolated lipids in ethanol at (molar percentages) 50%, 38.5%, 10% and 1.5%, respectively; (2) dissolving the mRNA active ingredient in 25 mM sodium acetate solution (pH=4.5); (3) using an automated high-throughput microfluidic system to mix the organic phase containing the lipid mixture and the aqueous phase containing the mRNA component in the flow ratio range of 1:1 to 1:4 at a mixing speed of 10 mL/min to 18 mL/min; (4) the prepared lipid nanoparticles (N/P ratio=6) were diluted with phosphate buffer solution and the nanoparticle solutions were ultrafiltered to the original preparation volume using ultrafiltration tubes (purchased from Millipore) with a cut-off molecular weight of 30 kDa; and (5) the obtained nanoparticles were filtered through a sterile 0.2 μm filter membrane and then stored in a sealed glass vial at low temperature.
(§2) The particle size and particle size dispersity index (PDI) of the prepared lipid nanoparticles were measured using a Zetasizer Pro (purchased from Malvern Instruments Ltd) and a DynaPro NanoStar (purchased from Wyatt) dynamic light scattering instrument. The degree of RNA encapsulation by lipid nanoparticles was characterized by the Encapsulation Efficiency %, which reflects the degree of binding of lipid nanoparticles to RNA fragments. This parameter was measured by the method of Quant-it™ RiboGreen RNA Assay (purchased from Invitrogen). Lipid nanoparticle samples were diluted in TE buffer (10 mM Tris-HCl, 1 mM EDTA, pH=7.5). A portion of the sample solution was removed, to which 0.5% Triton (Triton X-100) was added, and then allowed to stand at 37° C. for 30 minutes. Immediately after the addition of RIBOGREEN® reaction solution, the fluorescence values were read on a Varioskan LUX multifunctional microplate reader (purchased from Thermofisher) at 485 nm for absorption and 528 nm for emission to give the encapsulation efficiency values.

Series [2] is described as follows: Encapsulation efficiency of lipid nanoparticles (Quant-it RiboGreen RNA Assay). The settings on record: lipid nanoparticles with luciferase mRNA. In kind it is physicochemical. The protocol: as §1, §2
Series [3] has as its system C57BL/6 mice. In words: In vivo delivery of luciferase mRNA lipid nanoparticles in mice (bioluminescence imaging). The settings on record: intravenous, single dose 0.5 mg/kg luciferase mRNA. As to the method: The delivery effect and safety of nanoparticles encapsulated with luciferase mRNA (Trilink, L-7202) in mice were evaluated. The test mice were SPF-grade C57BL/6 mice, female, 6-8 weeks old, weighing 18-22 g, and were purchased from SPF (Beijing) Biotechnology Co., Ltd. All animals were acclimatized for more than 7 days prior to the experiment, and had free access to food and water during the experiment. The conditions include alternating light and dark for 12/12 h, the indoor temperature of 20-26° C. and the humidity of 40-70%. The mice were randomly grouped. The lipid nanoparticles encapsulated with luciferase mRNA prepared above were injected into mice by intravenous administration at a single dose of 0.5 mg/kg mRNA, and the mice were subjected to in vivo bioluminescence assay using a Small Animal In Vivo Imaging System (IVIS LUMINA III, purchased from PerkinElmer) at 6 h after administration. The assay was performed as follows: D-luciferin solution was prepared in saline at a concentration of 15 mg/mL, and each mouse was given the substrate by intraperitoneal injection. At ten minutes after administration of the substrate, the mice were anesthetized in an anesthesia chamber with isoflurane at a concentration of 2.5%. The anesthetized mice were placed in IVIS for fluorescence imaging, and data acquisition and analysis were performed on the concentrated distribution area of fluorescence.
The in vivo delivery efficiency of lipid nanoparticle carriers was expressed as the mean values of fluorescence intensity and total photon count in different animals within the same subject group, as shown in Table 5-Table 11. Higher values of fluorescence intensity and total photon count indicate higher in vivo delivery efficiency of this mRNA fragment by lipid nanoparticles. The lipid nanoparticles containing the cationic lipids of the present disclosure have good in vivo delivery efficiency.

Structures are written as SMILES.

For the compound `CCCCCCCCCC(=O)OCC(C)(C)CCCCCN(CCCO)CCCCCCCC(=O)OC(CCCCCCCC)CCCCCCCC` [2b], in series [1], the “Particle size (nm)” value came out at 104.61 nm and the “Particle-size distribution (PDI)” value is 0.013. Further, in series [2], the “Encapsulation efficiency (%)” value came to 80.17%. In addition, the “Total photon count in vivo at 6 hours after administration (Total Flux)” value (shortened to “Total photon count in vivo at 6 hours”) in series [3] came to 8.31E+10.
As for `CCCCCCCCCCCOC(=O)CCCCCN(CCO)CCCCCCC(C)(C)C(=O)OC(CCCCCCCC)CCCCCCCC` [3a], in series [1], the “Particle size (nm)” value stood at 89.72 nm and the “Particle-size distribution (PDI)” value came to 0.021. Also, in series [2], the “Encapsulation efficiency (%)” value amounted to 94.23%. Further, the “Total photon count in vivo at 6 hours” value in series [3] amounted to 1.03E+11.
Turning to `CCCCCCCCCOC(=O)CCCCCCCN(CCO)CCCCCCC1(C(=O)OC(CCCCCCCC)CCCCCCCC)CC1` [6a], in series [1], the “Particle size (nm)” value came to 90.67 nm and the “Particle-size distribution (PDI)” value was 0.018. In addition, the “Encapsulation efficiency (%)” value in series [2] was 87.22%. Besides, the “Total photon count in vivo at 6 hours” value in series [3] is 2.88E+10.
As to `CCCCCCCCCC(=O)OCCCCCCCN(CCO)CCCCCCC(C)(C)C(=O)OC(CCCCCCCC)CCCCCCCC` [6b], in series [1], the “Particle size (nm)” value is given as 99.55 nm and the “Particle-size distribution (PDI)” value is reported as 0.029. In addition, the “Encapsulation efficiency (%)” value in series [2] was 80.01%. Also, the “Total photon count in vivo at 6 hours” value in series [3] is reported as 7.42E+10.
On to `CCCCCCCCCOC(=O)CCCCCCCN(CCO)CCCCCCC(C)(C)C(=O)OCCC(CCCCCC)CCCCCC` [7a], for which the “Total photon count in vivo at 6 hours” value in series [3] turned out to be 5.26E+10.
Consider `CCCCCCCCC(CCCCCCCC)OC(=O)C(C)(C)CCCCCCN(CCO)CCCCCCCOC(=O)CCCC(CCCCC)CCCCC` [7b], for which, in series [1], the “Particle size (nm)” value is on record as 101.67 nm and the “Particle-size distribution (PDI)” value is reported as 0.030. Besides, the “Encapsulation efficiency (%)” value in series [2] came out at 88.68%. Also, the “Total photon count in vivo at 6 hours” value in series [3] was determined as 2.00E+10.
For the compound `CCCCCCCCCOC(=O)CCCCCCCN(CCO)CCCCCC(C)(C)CC(=O)OC(CCCCCCCC)CCCCCCCC` [9a], in series [1], the “Particle size (nm)” value is reported as 103.03 nm and the “Particle-size distribution (PDI)” value is 0.031. Moreover, the “Encapsulation efficiency (%)” value in series [2] came to 89.64%. In addition, the “Total photon count in vivo at 6 hours” value in series [3] was 2.06E+10.
Consider `CCCCCCCCCOC(=O)CCCCCCCN(CCO)CCCC(C)(C)CCC(=O)OC(CCCCCCCC)CCCCCCCC` [10a], for which, in series [1], the “Particle size (nm)” value is listed as 131.09 nm and the “Particle-size distribution (PDI)” value was found to be 0.032. The “Encapsulation efficiency (%)” value in series [2] was found to be 89.69%. The “Total photon count in vivo at 6 hours” value in series [3] was determined as 7.08E+10.
Take `CCCCCCCCCCCOC(=O)CCCCCN(CCCO)CCCCCCC(C)(C)C(=O)OC(CCCCCCCC)CCCCCCCC` [11a]: in series [1], the “Particle size (nm)” value came to 98.01 nm and the “Particle-size distribution (PDI)” value turned out to be 0.021. In series [2], the “Encapsulation efficiency (%)” value is on record as 89.36%. In addition, in series [3], the “Total photon count in vivo at 6 hours” value is recorded as 2.05E+10.
`CCCCCCCCCCCOC(=O)CCCCCN(CCCCO)CCCCCCC(C)(C)C(=O)OC(CCCCCCCC)CCCCCCCC` [12a]: in series [1], the “Particle size (nm)” value worked out at 104.85 nm and the “Particle-size distribution (PDI)” value was 0.021. In series [2], the “Encapsulation efficiency (%)” value is 85.24%. In addition, the “Total photon count in vivo at 6 hours” value in series [3] was determined as 1.39E+10.
As to `CCCCCCCCCCCOC(=O)CCCCCN(CCO)CCCCCCC1(C(=O)OC(CCCCCCCC)CCCCCCCC)CC1` [13a], in series [1], the “Particle size (nm)” value was found to be 110.20 nm and the “Particle-size distribution (PDI)” value is listed as 0.018. Further, the “Encapsulation efficiency (%)” value in series [2] is reported as 92.96%. Further, the “Total photon count in vivo at 6 hours” value in series [3] turned out to be 5.01E+10.
Consider `CCCCCCCCCCCOC(=O)CCCCCN(CCO)CCCCCCC(C)(C)C(=O)OCC(CCCCCCC)CCCCCCC` [14a], for which, in series [1], the “Particle size (nm)” value turned out to be 90.99 nm and the “Particle-size distribution (PDI)” value is given as 0.012. Further, the “Encapsulation efficiency (%)” value in series [2] amounted to 91.67%. In addition, the “Total photon count in vivo at 6 hours” value in series [3] is on record as 1.09E+11.
Take `CCCCCCCCCC(=O)OCC1(CCCCCN(CCO)CCCCCCCC(=O)OC(CCCCCCCC)CCCCCCCC)CC1` [14b]: in series [1], the “Particle size (nm)” value is listed as 99.73 nm and the “Particle-size distribution (PDI)” value came to 0.013. The “Encapsulation efficiency (%)” value in series [2] came out at 83.54%. Further, in series [3], the “Total photon count in vivo at 6 hours” value is 1.05E+11.
On to `CCCCCCCCCCCOC(=O)CCCCCN(CCO)CCCCCCC(C)(C)C(=O)OCCC(CCCCCC)CCCCCC` [15a], for which, in series [1], the “Particle size (nm)” value worked out at 95.94 nm and the “Particle-size distribution (PDI)” value is 0.021. In series [2], the “Encapsulation efficiency (%)” value amounted to 90.77%. Moreover, the “Total photon count in vivo at 6 hours” value in series [3] was 4.15E+10.
For `CCCCCCCCCC(=O)OCC1(CCCCCN(CCCCO)CCCCCCCC(=O)OC(CCCCCCCC)CCCCCCCC)CC1` [15b], in series [1], the “Particle size (nm)” value is on record as 120.27 nm and the “Particle-size distribution (PDI)” value was 0.015. Also, in series [2], the “Encapsulation efficiency (%)” value is listed as 69.69%. Moreover, the “Total photon count in vivo at 6 hours” value in series [3] is 8.22E+10.
For the compound `CCCCCCCCCCC(=O)OCC(C)(C)CCCCCN(CCO)CCCCCCCC(=O)OC(CCCCCCCCC)CCCCCCCCC` [16b], in series [1], the “Particle size (nm)” value amounted to 101.90 nm and the “Particle-size distribution (PDI)” value was found to be 0.028. Further, the “Encapsulation efficiency (%)” value in series [2] came out at 89.09%. The “Total photon count in vivo at 6 hours” value in series [3] turned out to be 1.28E+11.
On to `CCCCCCCCCCC(=O)OCC(C)(C)CCCCCN(CCCCO)CCCCCCCC(=O)OC(CCCCCCCCC)CCCCCCCCC` [17b], for which, in series [1], the “Particle size (nm)” value amounted to 109.87 nm and the “Particle-size distribution (PDI)” value is listed as 0.030. Also, in series [2], the “Encapsulation efficiency (%)” value is 87.72%. Moreover, in series [3], the “Total photon count in vivo at 6 hours” value was found to be 1.74E+11.
Consider `CCCCCCCCCCOC(=O)CCCCCCCN(CCO)CCCCCC(C)(C)COC(=O)C(CCCCCCCC)CCCCCCCC` [18b], for which, in series [1], the “Particle size (nm)” value was determined as 100.46 nm and the “Particle-size distribution (PDI)” value is listed as 0.037. In series [2], the “Encapsulation efficiency (%)” value was 89.34%. Also, the “Total photon count in vivo at 6 hours” value in series [3] came out at 3.91E+10.
Take `CCCCCCCCCCCOC(=O)CCCCCN(CCO)CCCCCC(C)(C)CC(=O)OC(CCCCCCCC)CCCCCCCC` [19a]: in series [1], the “Particle size (nm)” value came to 109.37 nm and the “Particle-size distribution (PDI)” value was 0.035. The “Encapsulation efficiency (%)” value in series [2] was determined as 87.90%. The “Total photon count in vivo at 6 hours” value in series [3] is 4.73E+10.
As for `CCCCCCCCCCOC(=O)CCCCCCCN(CCO)CCCCCC(C)(C)COC(=O)CC(CCCCCCC)CCCCCCC` [19b], in series [1], the “Particle size (nm)” value is 109.53 nm and the “Particle-size distribution (PDI)” value came to 0.036. The “Encapsulation efficiency (%)” value in series [2] was determined as 83.01%. For the same compound, the “Total photon count in vivo at 6 hours” value in series [3] was found to be 6.13E+10.
Turning to `CCCCCCCCCCOC(=O)CCCCCCCN(CCO)CCCCCC(C)(C)COC(=O)CCC(CCCCCC)CCCCCC` [20b], in series [1], the “Particle size (nm)” value was determined as 107.83 nm and the “Particle-size distribution (PDI)” value was 0.032. Moreover, in series [2], the “Encapsulation efficiency (%)” value is 87.69%. Further, in series [3], the “Total photon count in vivo at 6 hours” value came to 4.82E+10.
The matching figures for `CCCCCCCCC(CCCCCCCC)OC(=O)C(C)(C)CCCCCCN(CCO)CCCCCC(=O)OCCCCCCCCCC(C)C` [21a]: 110.00 nm, 0.016, 88.37% and 8.84E+10.
For the compound `CCCCCCCCCCC(=O)OCC1(CCCCCN(CCO)CCCCCCCC(=O)OC(CCCCCCCCC)CCCCCCCCC)CC1` [21b], in series [1], the “Particle size (nm)” value stood at 94.58 nm and the “Particle-size distribution (PDI)” value stood at 0.051. Besides, the “Encapsulation efficiency (%)” value in series [2] is on record as 92.37%. Further, the “Total photon count in vivo at 6 hours” value in series [3] stood at 4.95E+10.

For the origin of these results see US12617752B2, “Rapidly metabolized lipid compound” (Beijing Jitai Life Sciences Ltd, priority 2023, dated 2026).
